Data taken from article PMC7737769, “Pharmacological inhibition of syntenin PDZ2 domain impairs breast cancer cell activities and exosome loading with syndecan and EpCAM cargo” (Journal of Extracellular Vesicles, 2020).

Experiments:
[1] = molecular target: T1, syntenin‐PDZ tandem (without C‐terminal domain) (Homo sapiens, UniProt O00560); assay: Surface plasmon resonance (BIAcore), syntenin PDZ tandem; type: binding; settings: compound in PBS, read-out: apparent KD, syntenin‐PDZ tandem (without C‐terminal domain)
T1 construct: made in house; host or cells: Biotin XCell F' E. coli cells
T1 sequence (O00560 107-275): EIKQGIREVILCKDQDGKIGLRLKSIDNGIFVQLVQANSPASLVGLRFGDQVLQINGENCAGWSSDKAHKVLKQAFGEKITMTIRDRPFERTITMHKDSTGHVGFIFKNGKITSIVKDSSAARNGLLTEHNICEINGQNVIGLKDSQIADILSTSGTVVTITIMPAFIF
Description: All SPR experiments were conducted with a BIAcore T200 instrument (GE Healthcare), at 25°C. A total of 8000 resonance units (RU) of biotinylated ligands (N‐terminal 6xHis tagged biotinylated syntenin tandem, syntenin tandem with C terminus, GRASP55 tandem or GST as control) were immobilized on a streptavidin‐sensor chip (GE Healthcare). Analytes (C58 and SyntOFF compounds) were perfused at 30 µl per min in running buffer (10 mM HEPES pH 7.4, 150 mM NaCl, 0.005% Tween20) at different concentrations. The reference channel was N‐terminal 6xHis tagged biotinylated GST protein. The injection time was 240 s, long enough for the sensorgrams to reach equilibrium, and the dissociation time was 240 s. To carry out these SPR experiments, we employed the method known as ‘single‐cycle kinetics’ described in 2006 by Karlsson and co‐workers (Karlsson, Katsamba, Nordin, Pol, & Myszka, 2006). It consists in injecting the analyte at increasing concentrations, without regeneration steps between each sample injection to avoid that folded‐proteins can be damaged after regeneration steps. Equilibrium dissociation constants (KD) were calculated by fitting the data to a simple Langmuir binding isotherm using GraphPad Prism. For determination of the apparent KD, signals obtained at equilibrium were plotted as a function of compound concentration. […]

MCF‐7 cells = assay: Wound-healing (migration) assay, MCF-7; type: cell-based; settings: MCF-7, 100 µM, 24 h
Description: (§1) For migration assays, cells were treated with 1 ng/ml of mitomycin (Sigma M4287) overnight to inhibit cell division. Treated cells were plated in Ibidi culture‐inserts (Ibidi Cat‐80206) for 12 h to reach 90%–95% of confluence with or without compounds (100 µM). A wound was created by removing inserts from the dishes. Medium with or without compounds (100 µM) was refreshed to remove dead cells and the cells were observed under an inverted light microscope (Leica SP2) equipped with a camera. Images were taken by MetaMorph software every 10 min for 24 h. Measurements of cell velocity were calculated using the MetaMorph software.

MCF‐7 SyntKO cells = assay: Wound-healing (migration) assay, MCF-7 SyntKO; type: cell-based; settings: 100 µM, 24 h
Description: as §1

[2] = system: MCF‐7 cells (exosomal markers); assay: Western blot of exosomal fractions (exosome cargo); type: cell-based; settings: CAY10594 10 µM, 16 h
Description: For comparative analyses, exosome‐enriched fractions were collected from equivalent amounts of culture medium, conditioned by equivalent amounts of cells. MCF‐7 cells were treated with indicated compounds or with DMSO 0.2% as control, in medium containing exosome‐depleted FCS (10%). After 16 h, cell media were collected and exosomes were isolated by three sequential centrifugation steps at 4 °C: 10 min at 500 × g, to remove cells; 30 min at 10,000 × g, to remove cell debris; and 1h30min at 100,000 × g, to pellet exosomes (exosome‐enriched fraction), followed by one wash with 1400 µl of PBS1X (100,000 × g, 1 h), to remove soluble serum and secreted proteins. Exosomal pellets were then re‐suspended in 100 µl of PBS1X. The lysates from corresponding cultures were cleared by centrifugation at 1500 rpm for 5 min and then resuspended in lysis buffer (TrisHCL pH 7.4 30 mM, NaCl 150 mM, 1% NP40 (IGEPAL), 1 µg/ml aprotinin, 1 µg/ml leupeptin). Although only little variations were observed from sample to sample, exosomal amounts loaded for the western blot were normalized according to the number of parent cells from where exosomes were secreted.
The proteins were heat‐denaturated in Laemmli sample buffer, fractionated in 12.5% or 15% gels by SDS–PAGE and electro‐transferred to nitrocellulose membrane. Membranes were stained with Ponceau red and immunoblotted with the indicated primary antibodies for: CD9 (1/5000), CD63 (1/5000), CD81 (1/5000) and ADAM10 (1/1000) antibodies provided by E. Rubinstein (Charrin et al., 2001) (Université Paris‐Sud UMRS_935, Villejuif); syntenin (Homemade (Kashyap et al., 2015); 1/3000), Tubulin (Sigma‐Aldrich; 1/10,000), ALIX (Homemade (Baietti et al., 2012); 1/500), HSP70 (Santa Cruz Biotechnology; 1/500), Flotillin‐1 (BD Biosciences; 1/1000), EGFR (Cell Signaling; 1/1000), EpCAM (Santa Cruz Biotechnology; 1/200), Fibronectin (BD Biosciences; 1/5000), Src (Cell signaling; 1/1000), TSP1 (Lab Vision; 1/100), SDC1 intracellular domain (Homemade (Baietti et al., 2012); 1/1000), SDC4 intracellular domain (Abnova; 1/2000), and HRP‐conjugated secondary antibodies (Mouse or Rabbit, Thermofisher scientific; 1/10,000). Signals were visualized using Amersham ECL Prime Western Blotting Detection Reagent (GE Healthcare).

[3] = Chemical solubility and stability in PBS; type: physicochemical; settings: aqueous buffer; PBS pH 7.4 22°C

Structure (SMILES)	Kd [1]	cell migration (wound closure) (MCF‐7 cells)	cell migration (wound closure) (MCF‐7 SyntKO cells)	exosomal ADAM10 signal ([2]; SyntOFF 100 µM)	exosomal CD81 ([2]; SyntOFF 100 µM)	exosomal EGFR signal ([2]; SyntOFF 100 µM)	exosomal TSP1 signal ([2]; SyntOFF 100 µM)	exosomal fibronectin signal ([2]; SyntOFF 100 µM)	incorporation of EpCAM into exosomes ([2]; SyntOFF 100 µM)	incorporation of c‐Src into exosomes ([2]; SyntOFF 100 µM)	amount of exosomal ALIX ([2]; cSyntOFF, C58, SyntOFF 100 µM)	amount of exosomal SDC4 C‐terminal fragment (CTF) ([2]; cSyntOFF, C58, SyntOFF 100 µM)	amount of exosomal syntenin ([2]; cSyntOFF, C58, SyntOFF 100 µM)	solubility [3]
CC(C)[C@H](NC(=O)CSc1ccc(Cl)cc1)C(=O)O [Compound C58]	1030 µM	decreases	no such effect											
CC(C)[C@H](NC(=O)CCSc1ccc(Cl)cc1)C(=O)O [SyntOFF, (S)‐2‐(3‐(4‐chlorophenylthio)propanamido)‐3‐methylbutanoic acid]				unaffected	that was not the case	unaffected	unaffected	unaffected	markedly decrease	markedly decrease	significantly decreased	significantly decreased	significantly decreased	> 2300 µg/mL
